No end group written: not given here.
Columns and labels:
[1] = target: T1, σ1R-NR1 C1 (Mus musculus, UniProt O55242); assay: In vitro σ1R-NR1 C1 association of recombinant proteins (Western blot); assay type: biochemical, murine; conditions: increasing concentrations; 30 min RT; vs control without ligand
T1 construct: The coding region of the full-length murine σ1R (AF004927); GST (N, cleaved yes); made in house; host or cells: E. coli BL21 (KRX)
Procedure: (§1) Figure 7 Effect of β-End 1–31, ^αN-acetyl β-End 1–31 and their N-terminal derivatives on σ1R-σ2R, σ1R-NR1 C1 and σ1R-BiP associations. Amino acid sequence of β-End 1–31 showing derivatives 1–26 and 1–27. (A) HaloLink-attached σ2Rs were incubated for 30 min at RT in the presence of σ1Rs (100 nM) in 300 μL of 50 mM Tris-HCl (pH 7.4), 0.2% CHAPS, and 2.5 mM CaCl2. After removing the unbound σ1R proteins, the effects of increasing the peptide concentrations on σ1R-σ2R associations were studied. At the end of the incubation, protein complexes bound to HaloLink-σ2R were obtained by centrifugation, washed three times, solubilized in 2× Laemmli buffer containing β-mercaptoethanol, resolved by SDS-PAGE, and analyzed by Western blotting (for more details, see Section 4). This protocol was also used to assess the effect of ligands on (B) σ1R-NR1 C1 and (C) σ1R-BiP associations. Data were compared to that of the control, which was obtained in the absence of ligands. (A–C) Data are the mean ± SD, n = 3. (D) The β-End 1–31 structural models were predicted by Novafold (DNASTAR Lasergene protein v.17, Inc., Madison, WI, USA). Ribbon model: The 3D structure, charge distribution and hydrophobicity map of β-End 1–31 are shown. Positive charges are shown in red and negative charges in blue. Polar surfaces are shown in yellow, and nonpolar surfaces are shown in orange. Linear model: the opioid (1–5) and flexible region (8–11) sequences are shown in green and orange, respectively, and the amphiphilic helix (15–25) is shown in pink.
(§2) The recombinant σ1R (100 nM) was incubated either with Haloprotein (negative control) or together with the immobilized σ2R, NR1 C0-C1-C2 or BiP proteins in 300 µL of a buffer containing 50 mM Tris-HCl (pH 7.4) and 0.2% CHAPS in the presence of 2.5 mM CaCl2 for 30 min at RT. After removal of the unbound σ1R, the agarose-attached complexes were incubated for 30 min with rotation at RT in the presence of increasing concentrations of the ligands in a final reaction volume of 300 µL [50 mM Tris-HCl (pH 7.4), 2.5 mM CaCl2 and 0.2% CHAPS]. Ligands were usually dissolved in aqueous solutions; however, when an organic solvent such as DMSO was required to incorporate, e.g., pregnenolone sulfate, the solvent remained below 1% in the assay buffer. Agarose pellets containing the bound proteins were obtained by centrifugation, washed and resuspended thrice in the presence of 2.5 mM CaCl2, solubilized in 2× Laemmli buffer plus β-mercaptoethanol, and analyzed by Western blotting.
(§3) Because all the assays were performed with recombinant proteins, the immune signals provided a single band of the expected size, which was used for the subsequent densitometry analysis. Accordingly, no other regions of the blots provided information and were routinely excluded from the analysis.
Figure S8. Effect of the physiological and nonphysiological sequences of β-End 1-31 and classical σ1R ligands on BiP-σ1R, σ2R-σ1R and NR1 C1-σ1R associations . […]
D) Agarose-NR1 C1 loaded with […]
σ1Rs were incubated in the absence (control) and with nonphysiological derivatives of β-End 1-31. A-D) The σ1Rs that remained attached to the agarose complexes were evaluated by Western blotting. The […]
(§4) (1 picture or pasted object on this page, not shown here)
Figure S9. Effect of σ1R agonist/antagonist ligands on σ1R-NR1 C1 associations. Θ-Agarose-NR1 C1 was loaded with recombinant σ1Rs. After unbound σ1R proteins were removed, the complexes were incubated with (A) 1 nM β-End 1-31, (B) αN-acetyl β-End 1-31, (C-D) β-End 28-31 in the absence (black columns) and presence of (A) 10 nM or (B-D) increasing concentrations of competing σ1R ligands as indicated. The σ1Rs that remained attached to the Θ-σ2Rs were evaluated by Western blotting. The […]
Prog is progesterone; PregSulfate is pregnenolone sulfate; Nac is […]

[2] = target: T2, σ1R-BiP (Mus musculus, UniProt O55242); assay: In vitro σ1R-BiP association of recombinant proteins (Western blot); assay type: biochemical; conditions: for effect on σ1R-BiP association: increasing concentrations, 30 min RT, vs control without ligand
T2 construct: The coding region of the full-length murine σ1R (AF004927); GST (N, cleaved yes); host or cells: E. coli BL21 (KRX) for σ1R
Procedure: as §1, §2, §3
Figure S8. Effect of the physiological and nonphysiological sequences of β-End 1-31 and classical σ1R ligands on BiP-σ1R, σ2R-σ1R and NR1 C1-σ1R associations . Agarose-BiP was loaded with σ1Rs, and after the unbound σ1Rs were removed, the agarose-BiP-σ1R complexes were incubated in the absence (control) and presence of increasing concentrations of (A) β-End 1-31 C-terminal physiological derivatives and (B) classical σ1R ligands. C) Agarose-σ2R loaded with σ1Rs was incubated in the absence (control) and with nonphysiological derivatives of β-End 1-31. D) Agarose-NR1 C1 loaded with σ1Rs were incubated in the absence (control) and with nonphysiological derivatives of β-End 1-31. A-D) The σ1Rs that remained attached to the agarose complexes were evaluated by Western blotting. The […]
as §4
Figure S10. Effect of σ1R agonist/antagonist ligands on σ1R-BiP associations. Agarose-attached BiP proteins were incubated for 30 min in the presence of recombinant σ1R (100 nM) proteins in 300 μL of 50 mM Tris-HCl (pH 7.4), 0.2% CHAPS, and 2.5 mM CaCl2. After the unbound σ1R proteins were […]

[3] = target: σ1R-σ2R (Mus musculus, UniProt O55242); assay: In vitro σ1R-σ2R association of recombinant proteins (HaloLink-σ2R, Western blot); assay type: biochemical, murine; parameters: The coding region of the full-length murine σ1R (AF004927); GST (N, cleaved yes); made in house; host or cells: E. coli BL21 (KRX); conditions: increasing concentrations; 30 min RT; vs control without ligand
Procedure: as §1, §2, §3
Figure S7. Effect of σ1R agonist/antagonist ligands on σ1R-σ2R heterodimers. (A-C) Agarose (Θ)- attached σ2Rs captured recombinant σ1Rs. After removing unbound σ1R proteins, the Θ-σ2R.σ1R complexes were incubated with a ﬁxed concentration of a selected L1 ligand (indicated in brackets) in the absence and presence of increasing concentrations of competing σ1R ligands as indicated. The σ1Rs that remained attached to the Θ-σ2Rs were evaluated by Western blotting. * Signiﬁcant differences with respect to the control group that was incubated without L1 ligands. ANOVA followed by the Holm-Sidak multiple comparisons test, p < 0.05. For details, see Methods and Figure 6A. Representative blots are […]
Figure S8. Effect of the physiological and nonphysiological sequences of β-End 1-31 and classical σ1R ligands on BiP-σ1R, σ2R-σ1R and NR1 C1-σ1R associations . Agarose-BiP was loaded with σ1Rs, and after the unbound σ1Rs were removed, the agarose-BiP-σ1R complexes were incubated in the absence (control) and presence of increasing concentrations of (A) β-End 1-31 C-terminal physiological derivatives and (B) classical σ1R ligands. C) Agarose-σ2R loaded with σ1Rs was incubated in the […]

T1 sequence (O55242 whole entry): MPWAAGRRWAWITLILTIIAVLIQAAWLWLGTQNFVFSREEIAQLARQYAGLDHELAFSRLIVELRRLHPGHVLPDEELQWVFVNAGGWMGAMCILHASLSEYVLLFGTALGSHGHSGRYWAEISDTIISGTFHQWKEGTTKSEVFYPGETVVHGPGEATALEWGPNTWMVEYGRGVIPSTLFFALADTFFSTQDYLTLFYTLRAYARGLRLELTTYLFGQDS
T2 sequence (O55242 whole entry): as above
σ1R-σ2R, sequence (O55242 whole entry): as above

| Molecule | effect on σ1R-NR1 C1 association [1] | effect on σ1R-BiP association [2] | effect on σ1R-σ2R association [3] | activity at σ1R-BiP against agonists / β-End 1–31 ([2]; 1 nM β-End 1–31 with increasing competitor (Figure S10)) |
| --- | --- | --- | --- | --- |
| Pregnenolone sulfate [reference compound] | increased σ1R-NR1 C1 complexes | impaired σ1R associations with σ2R and BiP | impaired σ1R associations with σ2R and BiP | – |
| CC(=O)[C@H]1CC[C@H]2[C@@H]3CCC4=CC(=O)CC[C@]4(C)[C@H]3CC[C@]12C [progesterone, Progesterone, reference compound] | did the opposite | did the opposite | did the opposite | – |
| ^αN-acetyl β-End 1–26: ^αN-acetylated form of β-End 1–26 (Ac-YGGFMTSEKSQTPLVTLFKNAIIKNA; UniProt P01189 237-262, looked up, fragment) | separated σ1Rs from NR1 C1 subunits at pM concentrations | promoted σ1R-BiP complexes | – | antagonist activity |

From PMC9820303, “^αN-Acetyl β-Endorphin Is an Endogenous Ligand of σ1Rs That Regulates Mu-Opioid Receptor Signaling by Exchanging G Proteins for σ2Rs in σ1R Oligomers” (International Journal of Molecular Sciences, 2022)
